# According to patent publication US20040002119A1, “Method of predicting cell-based assay results using binding profiles” (priority 2002, published 2004):
# “Also recorded” adds a separate entry of the source. Where two headings read alike, the source gives them in different places.
# How the values were obtained:
# [1] = biological target: T1, ERα LBD (Homo sapiens, UniProt P03372); format: binding
# T1 sequence (P03372 311-547 limits assumed): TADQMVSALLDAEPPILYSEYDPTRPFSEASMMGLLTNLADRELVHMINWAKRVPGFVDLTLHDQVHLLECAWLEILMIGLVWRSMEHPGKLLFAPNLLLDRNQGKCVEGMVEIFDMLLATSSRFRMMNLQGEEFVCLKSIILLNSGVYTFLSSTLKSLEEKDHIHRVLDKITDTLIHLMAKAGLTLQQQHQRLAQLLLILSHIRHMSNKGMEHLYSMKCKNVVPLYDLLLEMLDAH
# Source text: The peptide sequences were synthesized with biotin at one end, and coupled to fluorescently distinct microsphere populations (5.6 μm streptavidin-coated latex microsphere particles). Multiple peptides of the same sequence were coupled to microspheres having the same fluorescent label, creating 46 fluorescently distinct microsphere populations (45 peptides plus no-peptide control). The microspheres populations were then multiplexed (combined). Alternatively, the ERα LBD could be coupled to the fluorescent microspheres.
# The Estrogen Receptor a Ligand Binding Domain (ERα LBD) was coupled to the fluorophore Alexa 532 (Molecular Probes, Inc., Eugene, Oreg.), which is suitable for use with 532 nm excitation sources. The excitation and emission spectra of Alexa 532 is intermediate between the green-fluorescent Alexa Fluor 488 dye and the orange-fluorescent Alexa Fluor 546 dye.
# The resulting binding of peptide to LBD is detected by flow cytometric analysis as is known in the art (see, e.g. WO 01/75443). In the present example, binding of ERα to a microsphere subset was indicated by the acquisition of orange fluorescence, detected using a LX-100 instrument (Luminex Corporation, Austin, Tex.). The above procedure is repeated for each compound to create a library of Binding Profiles.
# Binding Profiles for each of the six phage-identified peptides described above were also generated using the same multiplexed assay as described above.
# [2] = test system: human endometrial cells (Ishikawa cell line); assay: Ishikawa endometrial cell stimulation assay (intrinsic alkaline phosphatase); format: cell-based; conditions: absorbance at 405 nm minus blank; FIG. 13
# Method: The stimulation of human endometrial cells (Ishikawa cell line) was determined by increases in intrinsic alkaline phosphatase activity. […] The % Emax is defined as 100×(spectrophotometric reading at 405 nm with compound-blank)/(spectrophotometric reading at 405 nm estradiol-blank).
# [3] = test system: MCF-7 breast cancer cells; assay: MCF-7 cell proliferation assay ([3H]-thymidine incorporation); format: cell-based, human; conditions: CPM, FIG. 11
# Method: MCF-7 potency=(pEC50 or pIC50)(% cpm max or % cpm min).
# Cell proliferation of MCF-7 breast cancer cells was determined by [^3H]-thymidine incorporation. Compounds were tested for their potential to either stimulate MCF-7 proliferation or inhibit proliferation. An EC50 or IC50 was determined for each compound tested.
molecule,measurement,setting,value
4-OH tamoxifen,K7P2 peptide binding to ERα LBD over basal,[1],decreased binding of K7P2 over basal and not
same,RAC3 (671-697) binding to ERα LBD relative to unliganded ERα LBD,[1],decreases
same,T1P3 peptide binding to ERα LBD over basal,[1],increased binding of T1P3 over basal
same,"binding of ERα LBD to coactivator, coregulator and corepressor peptides compared to basal (no compound)",[1],reduced the amount of peptide binding compared to basal binding; also recorded: decreases or only slightly increases binding
O=C(c1ccc(OCCN2CCCCC2)cc1)c1c(-c2ccc(O)cc2)sc2cc(O)ccc12 [raloxifene],stimulation of intrinsic alkaline phosphatase in Ishikawa cells,[2],very low stimulatory activity
same,MCF-7 cell proliferation with increasing compound concentration,[3],cell proliferation decreased
COc1ccc2c(c1)OC(C)(C)[C@@H](c1ccccc1)[C@@H]2c1ccc(OCCN2CCCC2)cc1 [levormeloxifene],K7P2 peptide binding to ERα LBD over basal,"[1]; phage-identified peptide K7P2, 1 μM compound, FIG. 9",not
